Reference: PubChem BioAssay AID2060505 (Molecular Pharmacology Branch, DTP, NCI, 2025)

Test system: 633275-114-R-J1-PDC complex spheroids, viability
Assay: Anticancer human tumor 633275-114-R-J1-PDC patient-derived endometrial adenocarcinoma cell line growth inhibition [GQUAD]
Details: for IC50: curve of first compound; for viability, T/C: stronger effect = lower value
Outline: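 Multi-cell-type spheroids of tumor cells with HUVEC and mesenchymal stem cells, treated with drug combinations. Concentrations descend in half-log steps from near clinical Cmax, or from 10 microM where Cmax is unknown; viability read-out.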

[1] = second compound 0.0316 µM, first compound 0.0316 µM
[2] = second compound 0.0316 µM, first compound 0.1 µM
[3] = second compound 0.0316 µM, first compound 0.316 µM
[4] = second compound 0.0316 µM, first compound 1 µM
[5] = second compound 0.0316 µM, first compound 3.16 µM
[6] = second compound 0.0316 µM, first compound 10 µM
[7] = second compound 0.1 µM, first compound 0.0316 µM
[8] = second compound 0.1 µM, first compound 0.1 µM
[9] = second compound 0.1 µM, first compound 0.316 µM
[10] = second compound 0.1 µM, first compound 1 µM
[11] = second compound 0.1 µM, first compound 3.16 µM
[12] = second compound 0.1 µM, first compound 10 µM
[13] = second compound 0.316 µM, first compound 0.0316 µM
[14] = second compound 0.316 µM, first compound 0.1 µM
[15] = second compound 0.316 µM, first compound 0.316 µM
[16] = second compound 0.316 µM, first compound 1 µM
[17] = second compound 0.316 µM, first compound 3.16 µM
[18] = second compound 0.316 µM, first compound 10 µM
[19] = second compound 1 µM, first compound 0.0316 µM
[20] = second compound 1 µM, first compound 0.1 µM
[21] = second compound 1 µM, first compound 0.316 µM
[22] = second compound 1 µM, first compound 1 µM
[23] = second compound 1 µM, first compound 3.16 µM
[24] = second compound 1 µM, first compound 10 µM
[25] = second compound 3.16 µM, first compound 0.0316 µM
[26] = second compound 3.16 µM, first compound 0.1 µM
[27] = second compound 3.16 µM, first compound 0.316 µM
[28] = second compound 3.16 µM, first compound 1 µM
[29] = second compound 3.16 µM, first compound 3.16 µM
[30] = second compound 3.16 µM, first compound 10 µM
[31] = second compound 10 µM, first compound 0.0316 µM
[32] = second compound 10 µM, first compound 0.1 µM
[33] = second compound 10 µM, first compound 0.316 µM
[34] = second compound 10 µM, first compound 1 µM
[35] = second compound 10 µM, first compound 3.16 µM
[36] = second compound 10 µM, first compound 10 µM
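Further: spheroids exposed to the agents for seven days.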
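Wherever viability, T/C is given: percent of DMSO vehicle control viability which is 100%.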

**Q.** How did the IC50 (second compound 0.0316 µM) turn out when `C#Cc1c(F)ccc2cc(O)cc(-c3ncc4c(N5CC6CCC(C5)N6)nc(OCC56CCCN5CC(F)C6)nc4c3F)c12` (stereo unspecified) + CN(C)c1ccc(Nc2c3ccc(NC(=O)CCN4CCCC4)cc3nc3cc(NC(=O)CCN4CCCC4)ccc23)cc1 was run?
**A.** > 10000 nM

**Q.** What about the IC50 (second compound 0.1 µM) of the same molecule?
**A.** > 10000 nM

**Q.** And the IC50 (second compound 0.316 µM)?
**A.** > 10000 nM

**Q.** What about the IC50 (second compound 1 µM) of the same molecule?
**A.** > 10000 nM

**Q.** And the IC50 (second compound 3.16 µM)?
**A.** 4360 nM

**Q.** What about the IC50 (second compound 10 µM) of the same molecule?
**A.** < 31.6 nM

**Q.** And the viability, T/C [1]?
**A.** 108%

**Q.** What about the viability, T/C [2] of the same molecule?
**A.** 90.5%

**Q.** What about the viability, T/C [3] of the same molecule?
**A.** 86.9%

**Q.** And the viability, T/C [4]?
**A.** 91.9%

**Q.** And the viability, T/C [5]?
**A.** 78%

**Q.** And the viability, T/C [6]?
**A.** 66%

**Q.** What about the viability, T/C [7] of the same molecule?
**A.** 101%

**Q.** What about the viability, T/C [8] of the same molecule?
**A.** 97.8%

**Q.** What about the viability, T/C [9] of the same molecule?
**A.** 91.5%

**Q.** And the viability, T/C [10]?
**A.** 96.7%

**Q.** And the viability, T/C [11]?
**A.** 81.5%

**Q.** And the viability, T/C [12]?
**A.** 65.3%

**Q.** And the viability, T/C [13]?
**A.** 94.6%

**Q.** And the viability, T/C [14]?
**A.** 101%

**Q.** What about the viability, T/C [15] of the same molecule?
**A.** 86.8%

**Q.** What about the viability, T/C [16] of the same molecule?
**A.** 82.3%

**Q.** And the viability, T/C [17]?
**A.** 71.9%

**Q.** And the viability, T/C [18]?
**A.** 68.1%

**Q.** What about the viability, T/C [19] of the same molecule?
**A.** 97.5%

**Q.** And the viability, T/C [20]?
**A.** 96.5%

**Q.** What about the viability, T/C [21] of the same molecule?
**A.** 87.2%

**Q.** And the viability, T/C [22]?
**A.** 85.9%

**Q.** What about the viability, T/C [23] of the same molecule?
**A.** 70.6%

**Q.** And the viability, T/C [24]?
**A.** 54.9%

**Q.** And the viability, T/C [25]?
**A.** 81.9%

**Q.** What about the viability, T/C [26] of the same molecule?
**A.** 86.3%

**Q.** And the viability, T/C [27]?
**A.** 81.6%

**Q.** And the viability, T/C [28]?
**A.** 66.3%

**Q.** And the viability, T/C [29]?
**A.** 62%

**Q.** What about the viability, T/C [30] of the same molecule?
**A.** 28.1%

**Q.** What about the viability, T/C [31] of the same molecule?
**A.** 32.5%

**Q.** What about the viability, T/C [32] of the same molecule?
**A.** 29.2%

**Q.** And the viability, T/C [33]?
**A.** 23.3%

**Q.** What about the viability, T/C [34] of the same molecule?
**A.** 23.6%

**Q.** What about the viability, T/C [35] of the same molecule?
**A.** 16.1%

**Q.** What about the viability, T/C [36] of the same molecule?
**A.** 5.22%

**Q.** With `CC(=O)O[C@H]1C(=O)[C@@]2(C)[C@H]([C@H](OC(=O)c3ccccc3)[C@]3(O)C[C@H](OC(=O)[C@H](O)[C@@H](NC(=O)c4ccccc4)c4ccccc4)C(C)=C1C3(C)C)[C@]1(OC(C)=O)CO[C@@H]1C[C@@H]2O` + CN(C)c1ccc(Nc2c3ccc(NC(=O)CCN4CCCC4)cc3nc3cc(NC(=O)CCN4CCCC4)ccc23)cc1 as the molecule, how does the IC50 (second compound 0.0316 µM) read?
**A.** < 31.6 nM

**Q.** What about the IC50 (second compound 0.1 µM) of the same molecule?
**A.** < 31.6 nM

**Q.** And the IC50 (second compound 0.316 µM)?
**A.** < 31.6 nM

**Q.** What about the IC50 (second compound 1 µM) of the same molecule?
**A.** < 31.6 nM

**Q.** And the IC50 (second compound 3.16 µM)?
**A.** < 31.6 nM

**Q.** And the IC50 (second compound 10 µM)?
**A.** < 31.6 nM

**Q.** And the viability, T/C [1]?
**A.** 48.9%

**Q.** And the viability, T/C [2]?
**A.** 26.1%

**Q.** What about the viability, T/C [3] of the same molecule?
**A.** 18.4%

**Q.** And the viability, T/C [4]?
**A.** 22.6%

**Q.** What about the viability, T/C [5] of the same molecule?
**A.** 20.9%

**Q.** And the viability, T/C [6]?
**A.** 22.7%

**Q.** What about the viability, T/C [7] of the same molecule?
**A.** 48.3%

**Q.** What about the viability, T/C [8] of the same molecule?
**A.** 27.3%

**Q.** And the viability, T/C [9]?
**A.** 21.6%

**Q.** What about the viability, T/C [10] of the same molecule?
**A.** 18.9%

**Q.** What about the viability, T/C [11] of the same molecule?
**A.** 20.5%

**Q.** What about the viability, T/C [12] of the same molecule?
**A.** 23.5%

**Q.** And the viability, T/C [13]?
**A.** 46.4%

**Q.** And the viability, T/C [14]?
**A.** 23.6%

**Q.** What about the viability, T/C [15] of the same molecule?
**A.** 21.2%

**Q.** What about the viability, T/C [16] of the same molecule?
**A.** 19.1%

**Q.** And the viability, T/C [17]?
**A.** 20.7%

**Q.** What about the viability, T/C [18] of the same molecule?
**A.** 20.4%

**Q.** What about the viability, T/C [19] of the same molecule?
**A.** 45.9%

**Q.** What about the viability, T/C [20] of the same molecule?
**A.** 25.5%

**Q.** What about the viability, T/C [21] of the same molecule?
**A.** 17.5%

**Q.** What about the viability, T/C [22] of the same molecule?
**A.** 18.8%

**Q.** And the viability, T/C [23]?
**A.** 22.4%

**Q.** And the viability, T/C [24]?
**A.** 20.8%

**Q.** What about the viability, T/C [25] of the same molecule?
**A.** 41.4%

**Q.** And the viability, T/C [26]?
**A.** 22.8%

**Q.** What about the viability, T/C [27] of the same molecule?
**A.** 20.4%

**Q.** And the viability, T/C [28]?
**A.** 21.3%

**Q.** And the viability, T/C [29]?
**A.** 19.6%

**Q.** What about the viability, T/C [30] of the same molecule?
**A.** 19.8%

**Q.** What about the viability, T/C [31] of the same molecule?
**A.** 23.8%

**Q.** And the viability, T/C [32]?
**A.** 15.3%

**Q.** And the viability, T/C [33]?
**A.** 13.8%

**Q.** And the viability, T/C [34]?
**A.** 11.8%

**Q.** What about the viability, T/C [35] of the same molecule?
**A.** 15.2%

**Q.** And the viability, T/C [36]?
**A.** 12.9%

**Q.** What does the source list for `CC(C)(O)C1CCC(Nc2ccc3ncc(-c4cccc(C(F)(F)F)c4)n3n2)CC1` (stereo unspecified) + CN(C)c1ccc(Nc2c3ccc(NC(=O)CCN4CCCC4)cc3nc3cc(NC(=O)CCN4CCCC4)ccc23)cc1?
**A.** IC50 (second compound 0.0316 µM): 1850 nM; IC50 (second compound 0.1 µM): 1990 nM; IC50 (second compound 0.316 µM): 2090 nM; IC50 (second compound 1 µM): 1820 nM; IC50 (second compound 3.16 µM): 1310 nM; IC50 (second compound 10 µM): < 31.6 nM; viability, T/C [1]: 102%; viability, T/C [2]: 96.8%; viability, T/C [3]: 90.1%; viability, T/C [4]: 72.2%; viability, T/C [5]: 28.8%; viability, T/C [6]: 32.2%; viability, T/C [7]: 94%; viability, T/C [8]: 99.9%; viability, T/C [9]: 88.2%; viability, T/C [10]: 70.4%; viability, T/C [11]: 32.8%; viability, T/C [12]: 39.7%; viability, T/C [13]: 97.6%; viability, T/C [14]: 87.7%; viability, T/C [15]: 92.6%; viability, T/C [16]: 76.1%; viability, T/C [17]: 32.7%; viability, T/C [18]: 37.8%; viability, T/C [19]: 94.6%; viability, T/C [20]: 97.2%; viability, T/C [21]: 88.3%; viability, T/C [22]: 73%; viability, T/C [23]: 27.8%; viability, T/C [24]: 28.2%; viability, T/C [25]: 85.4%; viability, T/C [26]: 69.2%; viability, T/C [27]: 81.9%; viability, T/C [28]: 59.5%; viability, T/C [29]: 19.1%; viability, T/C [30]: 20.4%; viability, T/C [31]: 33.1%; viability, T/C [32]: 32.3%; viability, T/C [33]: 23.7%; viability, T/C [34]: 21.1%; viability, T/C [35]: 7.71%; viability, T/C [36]: 6.08%
